Data from patent US12156880B2, “Heterocyclic RIP1 kinase inhibitors” (Rigel Pharmaceuticals, Inc., priority 2021, dated 2024).
pIC50: −log10 of the molar value.

How the values were obtained:
RIPK1 = target: T1, RIPK1 (Homo sapiens, UniProt Q13546); assay: RIPK1 ADP-Glo biochemical kinase assay; conditions: read-out: RIPK1 ADP-Glo Kinase (IC50)
T1 sequence (Q13546 1-671): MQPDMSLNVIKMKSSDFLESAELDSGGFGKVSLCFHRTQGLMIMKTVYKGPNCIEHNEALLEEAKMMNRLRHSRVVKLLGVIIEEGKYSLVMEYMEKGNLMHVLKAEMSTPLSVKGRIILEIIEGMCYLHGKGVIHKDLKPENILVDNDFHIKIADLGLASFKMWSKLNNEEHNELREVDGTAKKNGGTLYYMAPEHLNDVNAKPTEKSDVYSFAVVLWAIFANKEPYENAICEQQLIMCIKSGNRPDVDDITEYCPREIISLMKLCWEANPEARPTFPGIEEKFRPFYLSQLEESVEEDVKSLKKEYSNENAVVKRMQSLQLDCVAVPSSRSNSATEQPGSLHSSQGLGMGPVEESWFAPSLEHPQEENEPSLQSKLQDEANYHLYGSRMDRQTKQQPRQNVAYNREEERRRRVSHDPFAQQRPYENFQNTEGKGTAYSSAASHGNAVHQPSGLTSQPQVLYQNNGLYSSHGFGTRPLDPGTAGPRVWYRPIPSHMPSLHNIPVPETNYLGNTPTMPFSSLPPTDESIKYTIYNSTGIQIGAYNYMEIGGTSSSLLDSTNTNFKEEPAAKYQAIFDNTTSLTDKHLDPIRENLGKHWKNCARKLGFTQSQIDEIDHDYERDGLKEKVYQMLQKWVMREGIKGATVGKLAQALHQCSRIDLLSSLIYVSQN
In short: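 RIPK1 at 31 ng/well in Tris pH 7.4 buffer with MgCl2, BSA, DTT and MnCl2, reacted with compounds (duplicate) for 30 min at 30 °C. ADP formed detected by ADP-Glo: 40 min stop/depletion, then 30 min detection reagent at room temperature; luminescence read.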

L929 cells = assay: L929 cell necroptosis assay (TNFa + zVAD, CellTiter-Glo recovery); format: cell-based, murine; conditions: Mus musculus, L929, 18 h, TNFa 2 ng/mL + zVAD-fmk, read-out: L929-CTG-recovery, L929, TNFa + zVAD (IC50)
In short: (§1)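 Human U937 (50K/well, 60 uM zVAD-fmk medium, plated same day) or murine L929 (10K/well, plated 18 h, then 40 uM zVAD-fmk medium) were grown in RPMI with 10% FBS. Both were pretreated with compound for 1 h at 37 °C before TNFa at 2 ng/mL final. Viability was read by CellTiter-Glo luminescence after 18 h.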

U937 cells = assay: U937 cell necroptosis assay (TNFa + zVAD, CellTiter-Glo recovery); format: cell-based; conditions: Homo sapiens, U-937, 18 h, TNFa 2 ng/mL + zVAD-fmk, read-out: U937 Zvad TNF CTG Recovery, U937, TNFa + zVAD (IC50)
In short: as §1

SMILES	pIC50 (RIPK1)	pIC50 (L929 cells)	pIC50 (U937 cells)
CN1C(=O)[C@@H](NC(=O)c2cc(Oc3cccnc3F)ccn2)COc2ccc(C#CC3(O)CCC3)cc21 [I-83, (S)-4-((2-fluoropyridin-3-yl)oxy)-N-(7-((1-hydroxycyclobutyl)ethynyl)-5-methyl-4-oxo-2,3,4,5-tetrahydrobenzo[b][1,4]oxazepin-3-yl)picolinamide]	7.72	6.66	8.85
CN1C(=O)[C@@H](NC(=O)c2cc(Cc3cccc(F)n3)ccn2)COc2ccc(C#CC3COC3)cc21 [I-84, (S)-4-((6-fluoropyridin-2-yl)methyl)-N-(5-methyl-7-(oxetan-3-ylethynyl)-4-oxo-2,3,4,5-tetrahydrobenzo[b][1,4]oxazepin-3-yl)picolinamide]	7.71	6.11	8.03
Cc1nc(Cc2ccnc(C(=O)N[C@H]3COc4ccc(C#CC5COC5)cc4N(C)C3=O)c2)cs1 [I-85, (S)—N-(5-methyl-7-(oxetan-3-ylethynyl)-4-oxo-2,3,4,5-tetrahydrobenzo[b][1,4]oxazepin-3-yl)-4-((2-methylthiazol-4-yl)methyl)picolinamide]	7.69	6.60	7.80
CN1C(=O)[C@@H](NC(=O)c2cc(Oc3cccnc3C(F)(F)F)ccn2)COc2ccc(C#CC(C)(C)O)cc21 [I-87, (S)—N-(7-(3-hydroxy-3-methylbut-1-yn-1-yl)-5-methyl-4-oxo-2,3,4,5-tetrahydrobenzo[b][1,4]oxazepin-3-yl)-4-((2-(trifluoromethyl)pyridin-3-yl)oxy)picolinamide]	7.29	4.95	6.27
CN1C(=O)[C@@H](NC(=O)c2cc(Oc3cccnc3C(F)(F)F)ccn2)COc2ccc(C#CC3(O)COC3)cc21 [I-88, (S)—N-(7-((3-hydroxyoxetan-3-yl)ethynyl)-5-methyl-4-oxo-2,3,4,5-tetrahydrobenzo[b][1,4]oxazepin-3-yl)-4-((2-(trifluoromethyl)pyridin-3-yl)oxy)picolinamide]	7.25	4.98	6.88
Cc1nc(Cc2ccnc(C(=O)N[C@H]3COc4ccc(C#CC5CCOCC5)cc4N(C)C3=O)c2)cs1 [I-90, (S)—N-(5-methyl-4-oxo-7-((tetrahydro-2H-pyran-4-yl)ethynyl)-2,3,4,5-tetrahydrobenzo[b][1,4]oxazepin-3-yl)-4-((2-methylthiazol-4-yl)methyl)picolinamide]	7.70	7.69	8.72
CN1C(=O)[C@@H](NC(=O)c2cc(Oc3cccnc3C#N)ccn2)COc2ccc(C#CC(C)(C)O)cc21 [I-91, (S)-4-((2-cyanopyridin-3-yl)oxy)-N-(7-(3-hydroxy-3-methylbut-1-yn-1-yl)-5-methyl-4-oxo-2,3,4,5-tetrahydrobenzo[b][1,4]oxazepin-3-yl)picolinamide]	7.00	5.02	6.54
CN1C(=O)[C@@H](NC(=O)c2cc(Oc3cccnc3C#N)ccn2)COc2ccc(C#CC3(O)COC3)cc21 [I-92, (S)-4-((2-cyanopyridin-3-yl)oxy)-N-(7-((3-hydroxyoxetan-3-yl)ethynyl)-5-methyl-4-oxo-2,3,4,5-tetrahydrobenzo[b][1,4]oxazepin-3-yl)picolinamide]	7.68	5.10	6.80
CN1C(=O)[C@@H](NC(=O)c2cc(Cc3cccc(C#N)n3)ccn2)COc2ccc(C#CC(C)(C)O)cc21 [I-93, (S)-4-((6-cyanopyridin-2-yl)methyl)-N-(7-(3-hydroxy-3-methylbut-1-yn-1-yl)-5-methyl-4-oxo-2,3,4,5-tetrahydrobenzo[b][1,4]oxazepin-3-yl)picolinamide]	7.52	5.25	7.28
CN1C(=O)[C@@H](NC(=O)c2cc(Cc3cccc(C#N)n3)ccn2)COc2ccc(C#CC3(O)COC3)cc21 [I-94, (S)-4-((6-cyanopyridin-2-yl)methyl)-N-(7-((3-hydroxyoxetan-3-yl)ethynyl)-5-methyl-4-oxo-2,3,4,5-tetrahydrobenzo[b][1,4]oxazepin-3-yl)picolinamide]	7.74	5.42	7.63
CN1C(=O)[C@@H](NC(=O)c2cc(Oc3cccnc3F)ccn2)COc2ccc(C#CC(C)(C)C)cc21 [I-95, (S)—N-(7-(3,3-dimethylbut-1-yn-1-yl)-5-methyl-4-oxo-2,3,4,5-tetrahydrobenzo[b][1,4]oxazepin-3-yl)-4-((2-fluoropyridin-3-yl)oxy)picolinamide]	7.20	6.45	8.49
Cc1nc(Cc2ccnc(C(=O)N[C@H]3COc4ccc(C#CC(C)(C)C)cc4N(C)C3=O)c2)cs1 [I-96, (S)—N-(7-(3,3-dimethylbut-1-yn-1-yl)-5-methyl-4-oxo-2,3,4,5-tetrahydrobenzo[b][1,4]oxazepin-3-yl)-4-((2-methylthiazol-4-yl)methyl)picolinamide]	6.40	6.62	7.07

Continued, in another order:

pIC50 (RIPK1)	SMILES	pIC50 (L929 cells)	pIC50 (U937 cells)
7.08	CN1C(=O)[C@@H](NC(=O)c2cc(Cc3cccc(F)n3)ccn2)COc2ccc(C#CC(C)(C)C)cc21 [I-97, (S)—N-(7-(3,3-dimethylbut-1-yn-1-yl)-5-methyl-4-oxo-2,3,4,5-tetrahydrobenzo[b][1,4]oxazepin-3-yl)-4-((6-fluoropyridin-2-yl)methyl)picolinamide]	6.41	7.79
7.62	CCc1nc(Cc2ccnc(C(=O)N[C@H]3COc4ccc(C#CC(C)(C)O)cc4N(C)C3=O)c2)cs1 [I-98, (S)-4-((2-ethylthiazol-4-yl)methyl)-N-(7-(3-hydroxy-3-methylbut-1-yn-1-yl)-5-methyl-4-oxo-2,3,4,5-tetrahydrobenzo[b][1,4]oxazepin-3-yl)picolinamide]	6.95	7.81
7.57	CCc1nc(Cc2ccnc(C(=O)N[C@H]3COc4ccc(C#CC5(O)COC5)cc4N(C)C3=O)c2)cs1 [I-99, (S)-4-((2-ethylthiazol-4-yl)methyl)-N-(7-((3-hydroxyoxetan-3-yl)ethynyl)-5-methyl-4-oxo-2,3,4,5-tetrahydrobenzo[b][1,4]oxazepin-3-yl)picolinamide]	6.65	7.57
7.55	CN1C(=O)[C@@H](NC(=O)c2cc(Oc3cncc(F)c3)ccn2)COc2ccc(C#CC3(O)CCC3)cc21 [I-100, (S)-4-((5-fluoropyridin-3-yl)oxy)-N-(7-((1-hydroxycyclobutyl)ethynyl)-5-methyl-4-oxo-2,3,4,5-tetrahydrobenzo[b][1,4]oxazepin-3-yl)picolinamide]	5.96	8.39
7.26	CN1C(=O)[C@@H](NC(=O)c2cc(Oc3cncc(F)c3)ccn2)COc2ccc(C#CC(C)(C)C)cc21 [I-101, (S)—N-(7-(3,3-dimethylbut-1-yn-1-yl)-5-methyl-4-oxo-2,3,4,5-tetrahydrobenzo[b][1,4]oxazepin-3-yl)-4-((5-fluoropyridin-3-yl)oxy)picolinamide]	5.80	8.04
7.53	CN1C(=O)[C@@H](NC(=O)c2cc(Oc3cccnc3)ccn2)COc2ccc(C#CC(C)(C)C)cc21 [I-102, (S)—N-(7-(3,3-dimethylbut-1-yn-1-yl)-5-methyl-4-oxo-2,3,4,5-tetrahydrobenzo[b][1,4]oxazepin-3-yl)-4-(pyridin-3-yloxy)picolinamide]	6.19	8.12
